Publication PMC11145868, “Protein target similarity is positive predictor of in vitro antipathogenic activity: a drug repurposing strategy for Plasmodium falciparum” (Journal of Cheminformatics, 2024)
Where a name gives a salt, the structure may show the parent alone. Read-outs that look alike come from different tables or passages of the source.

Legend:
HEK293T cells = experiment: Mammalian cell cytotoxicity assay, HEK293T (CellTiter-Glo, 72 h); details: read-out: HEK CC50
[1] = target: P. berghei-luciferase sporozoites; experiment: microbe, parasite or virus in culture; assay type: cell-based, Plasmodium berghei
P. falciparum Dd2-HLH [2] = experiment: microbe, parasite or virus in culture; assay type: cell-based, Plasmodium falciparum; details: read-out: Blood stage 72h EC50
P. falciparum Dd2-HLH [3] = experiment: microbe, parasite or virus in culture; assay type: cell-based, Plasmodium falciparum
[4] = Mammalian cell cytotoxicity assay, HEK293T (CellTiter-Glo, 72 h); details: human, HEK293T cells
[5] = Mammalian cell cytotoxicity assay, HepG2 (CellTiter-Glo, 72 h); details: human, HepG2 cells
[6] = liver-stage parasites, 48 hours in culture, read-out: Liver stage 48h EC50
[7] = P. falciparum blood-stage parasites, 72 hours in culture
[8] = P. falciparum blood-stage parasites, 48 hours in culture, read-out: Blood stage 48h EC50
[9] = Plasmodium berghei, HepG2, liver-stage parasites, 48 hours in culture, read-out: Liver stage 48h EC50
[10] = Plasmodium falciparum, DD2, 72 h
[11] = Plasmodium falciparum, DD2, 48 h, read-out: Blood stage 48h EC50
[12] = Plasmodium berghei, liver-stage parasites, 48 h in culture, read-out: Liver 48 h EC50
[13] = Plasmodium falciparum, DD2, Hec50, 48 h, read-out: Blood stage 48 h EC50
[14] = Plasmodium falciparum, DD2, P. falciparum blood-stage parasites, 72 hours in culture
[15] = Plasmodium falciparum, DD2, P. falciparum blood-stage parasites, 48 hours in culture, read-out: Blood stage 48h EC50

| Molecule | EC50 [1, 6] [nM] | EC50 (P. falciparum Dd2-HLH [2]; [7]) [nM] | CC50 at 72 h [4] [nM] | EC50 [1, 9] [nM] | EC50 (P. falciparum Dd2-HLH [2]; [10]) [nM] | CC50 at 72 h [5] [nM] | EC50 (P. falciparum Dd2-HLH [3]; [11]) [nM] | also measured |
| --- | --- | --- | --- | --- | --- | --- | --- | --- |
| Cc1nc(N2CCN(Cc3ccc(F)cc3)C2=O)sc1C(=O)NCc1cccnc1 [XEN-723] | > 10000 | 334 |  |  |  |  |  | CC50 (HEK293T cells; HEK293T cells): 57 nM; EC50 (P. falciparum Dd2-HLH [3]; [8]): 158 nM |
| O=C(Nc1ccccc1)N[C@@H]1C(=O)N(CC23CC4CC(CC(C4)C2)C3)c2ccccc2N(c2ccccc2)C1=O [GV 150013] | > 10000 | 253 |  |  |  |  |  | CC50 (HEK293T cells; HEK293T cells): > 9950 nM |
| SN-38 | 1010 | 358 |  |  |  |  |  | CC50 (HEK293T cells; HEK293T cells): 79 nM; EC50 (P. falciparum Dd2-HLH [3]; [8]): 507 nM |
| Cc1cc(-c2cc(OC(=O)c3ccccc3)ccc2Cl)cc2nnc(Nc3ccc(OCCN4CCCC4)cc3)nc12 [TG-100801] | 1410 | 205 |  |  |  |  |  | CC50 (HEK293T cells; HEK293T cytotoxicity): > 9950 nM; EC50 (P. falciparum Dd2-HLH [3]; [8]): 68 nM |
| CC[C@]1(O)C[C@@H]2CN(CCc3c([nH]c4ccccc34)[C@@](C(=O)OC)(c3cc4c(cc3OC)N(C)[C@H]3[C@@](O)(C(N)=O)[C@H](O)[C@]5(CC)C=CCN6CC[C@]43[C@@H]65)C2)C1 [Vindesine] |  |  | > 9950 | 837 | 20 | > 9990 | 14 |  |
| Cc1cc(N)c2cc(NC(=O)Nc3ccc4nc(C)cc(N)c4c3)ccc2n1 [Aminoquinuride] |  |  | > 9950 | 3490 | 449 | > 9990 | 79 |  |
| XL-888 | 99 | 348 |  |  |  |  |  | CC50 (HEK293T cells; HEK293T cytotoxicity): 47 nM; EC50 (P. falciparum Dd2-HLH [3]; [8]): 201 nM |
| COc1cc2nc(-c3ccc(N4CCN(C)CC4)cc3)nc(NCCN3CCOCC3)c2cc1OC [CPG-52364] | 1100 | 381 |  |  |  |  |  | CC50 (HEK293T cells; HEK293T cells): 1640 nM; EC50 (P. falciparum Dd2-HLH [3]; [8]): 100 nM |
| Cc1ncc(NC(=O)c2ccc(CN3CCN(C)CC3)c(C(F)(F)F)c2)cc1Nc1nccc(-c2cccnc2)n1 [Flumatinib mesylate] | > 10000 | 213 |  |  |  |  |  | CC50 (HEK293T cells; HEK293T cells): > 9950 nM; EC50 (P. falciparum Dd2-HLH [3]; [8]): 85 nM |
| COc1ccc(-c2ccc3ncc4c(c3c2)n(-c2ccc(N3CCNCC3)c(C(F)(F)F)c2)c(=O)n4C)cn1 [NVP-BGT226, reference compound] |  |  | 35 | 1 | 6 | 3 | 1 | EC50 [1, 12]: 0.5 nM; EC50 (P. falciparum Dd2-HLH [3]; [13]): 0.6 nM |
| C[C@]12O[C@H](C[C@]1(O)CO)n1c3ccccc3c3c4c(c5c6ccccc6n2c5c31)CNC4=O [Lestaurtinib] |  |  | 551 | 1020 |  | 29 |  | EC50 (P. falciparum Dd2-HLH [2]; [14]): 259 nM; EC50 (P. falciparum Dd2-HLH [3]; [15]): 88 nM |
| COc1cccc2c1C(=O)c1c(O)c3c(c(O)c1C2=O)C[C@@](O)(C(=O)CO)C[C@@H]3O[C@H]1C[C@H](N)[C@H](O)[C@H](C)O1 [Doxorubicin] |  |  | 74 | 1720 | 250 | 44 | 65 |  |
| COC1=C(C)C(=O)C2=C(C1=O)[C@@H](COC(N)=O)[C@@]1(OC)[C@H]3N[C@H]3CN21 [mitomycin A, reference compound] |  |  | 362 | 1360 |  | 32 |  | EC50 (P. falciparum Dd2-HLH [2]; [14]): 18 nM; EC50 (P. falciparum Dd2-HLH [3]; [15]): 38 nM; EC50 (P. falciparum Dd2-HLH [3]; Plasmodium falciparum, DD2, stage and incubation time not given, read-out: EC50 (antiplasmodial, quoted in discussion from Supplementary Table 1)): 37.7 nM |
| CN(c1ccc(Cl)cc1)c1cc[n+](Cc2ccc(-c3ccc(C[n+]4ccc(N(C)c5ccc(Cl)cc5)c5ccccc54)cc3)cc2)c2ccccc12 [TCD-717] |  |  | 1930 | 102 | 714 | 4770 | 63 |  |
| CC(=O)O[C@@]12CO[C@@H]1C[C@H](O)[C@@]1(C)C(=O)[C@H](O)C3=C(C)[C@@H](OC(=O)[C@H](O)[C@@H](NC(=O)OC(C)(C)C)c4ccccc4)C[C@@](O)([C@@H](OC(=O)c4ccccc4)[C@H]21)C3(C)C [Docetaxel] |  |  | > 9950 | 401 | 11 | 24 | 11 |  |
| CC1=C(c2ccc(O)cc2)[C@H](c2ccc(OCCN3CCCCC3)cc2)Oc2cc(O)ccc21 [Acolbifene] |  |  | 2990 | 2830 | 728 | 6210 | 218 |  |
| CN[C@@H]1C[C@H]2O[C@@](C)([C@@H]1OC)n1c3ccccc3c3c4c(c5c6ccccc6n2c5c31)C(=O)N[C@H]4O [UCN-01] | 2150 | 488 |  |  |  |  |  | CC50 (HEK293T cells; HEK293T cytotoxicity): 74 nM; EC50 (P. falciparum Dd2-HLH [3]; [8]): 79 nM |
| COc1cc(N2CCC(N3CCN(C)CC3)CC2)ccc1Nc1ncc(Cl)c(Nc2ccccc2P(C)(C)=O)n1 [Brigatinib] |  |  | 1390 | 3330 | 346 | 136 | 99 |  |
| CCCCCC(=O)O[C@]1(C(C)=O)CC[C@H]2[C@@H]3CCC4=CC(=O)CC[C@]4(C)[C@H]3CC[C@@]21C [Hydroxyprogesterone caproate] |  |  | > 9950 | 1710 | 742 | 863 | 550 |  |
| COc1ccc(C[C@H](N)C(=O)N[C@H]2[C@@H](O)[C@H](n3cnc4c(N(C)C)ncnc43)O[C@@H]2CO)cc1 [Puromycin] |  |  | 1240 | 840 | 125 | 498 | 61 |  |
| COCCNCc1ccc(-c2cc3nccc(Oc4ccc(NC(=O)C5(C(=O)Nc6ccc(F)cc6)CC5)cc4F)c3s2)nc1 [MG-516] |  |  | 2250 | 2180 | 673 | 1460 | 144 |  |
| CN1CCC(CNc2ccc3ncc(-c4cccc(OC(F)(F)F)c4)n3n2)CC1 [SGI-1776] |  |  | 4580 | 1790 | 623 | 1040 | 482 |  |
| COC(=O)[C@]12CCC(C)(C)C[C@H]1[C@H]1C(=O)C=C3[C@@]4(C)C=C(C#N)C(=O)C(C)(C)[C@@H]4CC[C@@]3(C)[C@]1(C)CC2 [Bardoxolone methyl] |  |  | 208 | 155 | 750 | 557 | 340 |  |
| COc1ccc(-c2nc(N3CCOCC3)c3sc(CN(C)c4ncc(C(=O)NO)cn4)cc3n2)cn1 [CUDC-907, reference compound] |  |  | 27 |  | 18 | 3 | 8 | EC50 [1, 12]: 39 nM; EC50 (P. falciparum Dd2-HLH [3]; [13]): 7.5 nM |
| CN(C)c1ccc2c(c1)Sc1cc(N(C)C)ccc1N2 [Leuco methylthioninium] |  |  |  |  |  |  |  | CC50 (HEK293T cells; HEK293T cells): 3490 nM; EC50 ([1]; read-out: Liver stage 48h EC50): 3920 nM; EC50 (P. falciparum Dd2-HLH [2]): 209 nM; EC50 (P. falciparum Dd2-HLH [3]; read-out: Blood stage 48h EC50): 96 nM |
| COc1cc2c(Nc3ccc(NC(=O)c4ccccc4)cc3)ncnc2cc1OCCCN1CCOCC1 [ZM447439] | 4330 | 643 |  |  |  |  |  | CC50 (HEK293T cells; HEK293T cytotoxicity): > 9950 nM; EC50 (P. falciparum Dd2-HLH [3]; [8]): 452 nM |
| O=C(NO)c1cnc(N2C[C@@H]3[C@H](C2)[C@H]3NCc2ccc3cc(F)ccc3n2)nc1 [CHR-3996] |  |  | 920 | 151 | 15 | 195 | 20 |  |
| CN(C)Cc1ccc(S(=O)(=O)n2ccc(/C=C/C(=O)NO)c2)cc1 [resminostat, reference compound] |  |  | 3550 | 7060 | 697 | 1200 |  | EC50 (P. falciparum Dd2-HLH [3]; Plasmodium falciparum, DD2, read-out: EC50 (antiplasmodial, quoted in discussion from Supplementary Table 1)): 431 nM |
